# Patent US20180214440A1, “ORAL COMPOSITION” (HELPERBY THERAPEUTICS LIMITED, priority 2015, published 2018)
# Tested on: log phase S. aureus
# Experiment: Time-kill studies for 240 minutes, Example 3
# Type: cell-based
# Conditions: alone at 0.01% w/v, FIG. 6
# Experimental: FIGS. 4, 5 and 6 contain the results of the time-kill studies then carried out against log phase S. aureus for 240 minutes (4 hours).
# These formulations included chlorhexidine digluconate at either 0.06% w/v, 0.04% w/v, 0.03% w/v or 0.015% w/v.
# Corsodyl® Daily Defence mouthwash 0.06% is a commercially available product manufactured by GlaxoSmithKline which contains 0.06% w/v chlorhexidine digluconate.
# The time to zero values for each of the FIGS. 4 to 6 are shown below in Table 4.
compound,measurement,value
"Cc1nc2ccc(Oc3ccccc3)cc2c2c1CCN2CCc1ccccc1 [HT61, 4-methyl-8-phenoxy-1-(2-phenylethyl)-2,3-dihydro-1H-pyrrolo[3,2-c]quinoline]",antimicrobial activity against log phase S. aureus,does not have significant antimicrobial activity
